The subject of test [1] is intracellular MDR-M.tb H37Rv (ATCC 35825) in activated THP-1 macrophages. Kind of test: Intracellular efficacy THP-1 macrophage assay, MDR-M.tb ATCC 35825. The class given is cell-based, Mycobacterium tuberculosis. The note with it: Fig 4E; day 7; DRILS-1398 15 μM, rifampicin 19.45 μM, alone or combined.
Test [2] concerns intracellular M.tb H37Rv (ATCC 27294) in activated THP-1 macrophages. As to the kind of experiment: Intracellular efficacy THP-1 macrophage assay, M.tb H37Rv ATCC 27294. Conditions: Fig 4D, DRILS-1398 15 μM, rifampicin 19.45 μM, alone or combined.
Description: The THP-1 cells were activated with PMA (phorbol 12-myristate-13-acetate) for differentiation into macrophages. After 72 hr of activation, the THP-1 macrophages were infected with M.tb H37Rv strain (ATCC-27294 and ATCC-35825) at a multiplicity of infection (MOI) of 1:10.[34]^,[35] The macrophage infection was allowed for 2 hrs at 37°C with 5% CO2. The media containing M.tb was discarded, and macrophage monolayers were washed twice with phosphate-buffered saline to remove the extracellular bacteria and replenished with fresh, complete RPMI. The M.tb-infected macrophages were exposed to compounds by transferring 200 μL of fresh media containing the respective concentrations of the compounds. Duplicate wells were lysed (0.05% SDS) at specific time points and enumerated to estimate the numbers of intracellular M.tb 2 hr post-infection. The 0.1 mL of lysate was serially diluted and plated onto Middle brook 7H11 agar plates for enumeration (read after 3 to 4 weeks) of live M.tb after compound treatment. After 3 and 7 day exposure to the compounds, the cells were treated the same way, and the live M.tb was enumerated. The efficacy of the test compound was assessed by comparing the M.tb counts from the respective days to day 0 and day 7.
Test [3] concerns M.tb H37Rv. Kind of test: Histopathology (H&E, ZN stain) of lungs of infected mice.
Test [4] relates to M.tb-CM. Further details: method as in doi:10.1039/C1MD00148E. Conditions: read-out: IC50, inhibition of M.tb-CM; cited from earlier work.
[5] abbreviates: Table S4, lung of infected treated mice.

pIC50: −log10 of the molar value.

Turning to `CO[C@H]1/C=C/O[C@@]2(C)Oc3c(C)c(O)c4c(O)c(c(/C=N/N5CCN(C)CC5)c(O)c4c3C2=O)NC(=O)/C(C)=C\C=C\[C@H](C)[C@H](O)[C@@H](C)[C@@H](O)[C@@H](C)[C@H](OC(C)=O)[C@@H]1C` [Rifampicin, reference compound], the “cfu reduction vs day 7 control, combination study” value in test [1] is reported as 1.96 log10 cfu/mL; in test [2] (day 7) it was 2.28 log10 cfu/mL. Further, the “cfu reduction vs day 3 control, combination study” value in test [2] (day 3) is on record as 1.26 log10 cfu/mL.

Take `NNC(=O)c1ccncc1` [Isoniazid, reference compound]: in test [3] (DRILS-1398 and DRILS-1398(F) 30 mg/kg, isoniazid 5 mg/kg), the “Granuloma in the lung” value was “no signs of granuloma”. Besides, in test [3] (setting [5]), the Granuloma result is reported as “-” and the “ZN stain (Acid Fast Bacilli)” value is reported as “+”. In addition, in test [3] (vs infected mice without drug), the “Acid-fast bacilli load in lung, ZN staining” value is given as “minimal presence of bacilli”.

On to `CS(=O)(=O)Nc1ccc(F)cc1-c1cc2cc(F)ccc2n1S(C)(=O)=O` [B], for which the negative-log IC50 (pIC50) (in general, −log10 of the IC50, conventionally taken in molar units) in test [4] is approximately 4.77.

Source of the values: article PMC12144419, “Early preclinical development of Mycobacteriumtuberculosis amino acid biosynthesis pathway inhibitor DRILS-1398 as a potential anti-TB drug” (iScience, 2025).
